Values quoted from earlier work, collected in patent publication US9339478B2, “Pharmaceutical formulation” (RECKITT BENCKISER LLC, priority 2011, dated 2016).

Settings: per dose, typical

COc1ccc2c3c1O[C@H]1[C@@H](O)C=C[C@H]4[C@@H](C2)N(C)CC[C@@]341 [codeine]
period of therapeutic effect / relief provided by a dose: 2.5 to 3 h
